Our source for the melting point and mortality values is patent US20170015649A1, “N-Thio-anthranilamid compounds and their use as pesticides” (BASF SE, priority 2005, published 2017).

The term melting point denotes the temperature, or range, at which the solid turns liquid. As usually defined, the mortality is the percentage killed.

Data set [1] has as its system Yellowfever Mosquito (Aedes aegyptii) Larvae. In words: Activity against mosquito larvae via water treatment. Type of data set: in vivo. The note with it: read-out: mortality of yellowfever mosquito. The method, then: 11. Activity Against Yellowfever Mosquito (Aedes aegyptii), House Mosquito (Culex quinquefasciatus) and Malaria Mosquito (Anopheles albimanus) Larvae Via Water Treatment
Well plates were used as test arenas. The active ingredient was dissolved in acetone and diluted with water to obtain the concentrations needed. The final solutions containing appr. 1% acetone were placed into each well. Approximately 10 mosquito larvae (4th-instars) in 1 ml water were added to each well. Larvae were fed one drop of liver powder each day. The dishes were covered and maintained at 22° C. Mortality was recorded daily and dead larvae and live or dead pupae were removed daily. At the end of the test remaining live larvae were recorded and percent mortality was calculated.

The test system of data set [2] is Oat Aphid (Rhopalosiphum padi). The data set is described as follows: Activity against oat aphid, barley leaf disks. The note with it: 2500 ppm; leaf disks sprayed with 2.5 μl; 5 days; compared to 0% mortality of untreated controls. The data set is classed as in vivo. The protocol:
Barlay leaf disk were placed into microtiterplates filled with 0.8% agar-agar and 2.5 ppm OPUS™. The leaf disks were sprayed with 2.5 μl of the test solution and 3 to 8 adult aphids were placed into the microtiterplates which were then closed and kept at 22-24° C. and 35-45% humidity under fluorescent light for 5 days. Mortality was assessed on the basis of vital aphids. Tests were replicated 2 times.

In data set [3] the test system is Boll Weevil (Anthonomus grandis). In words: Activity against boll weevil, eggs in microtiterplates. Type of data set: in vivo. The note with it: eggs sprayed with 20 μl test solution, 3 to 5 days. The method, then: 10 to 15 eggs were placed into microtiterplates filled with 2% agar-agar in water and 300 ppm formaline. […] Mortality was assessed on the basis of the remaining unhatched eggs or larvae on the agar surface and/or quantity and depth of the digging channels caused by the hatched larvae. Tests were replicated 2 times.

Data set [4] relates to Vetch Aphid (Megoura viciae). In words: Activity against vetch aphid, bean leaf disks. The note with it: foliar, 144 h, 2500 ppm, leaf disks sprayed with 2.5 μl, 6 days, compared to 0% mortality of untreated controls, read-out: mortality. Type of data set: in vivo. The protocol: Bean leaf disks were placed into microtiterplates filled with 0.8% agar-agar and 2.5 ppm OPUS™. The leaf disks were sprayed with 2.5 μl of the test solution and 5 to 8 adult aphids were placed into the microtiterplates which were then closed and kept at 22-24° C. and 35-45% under fluorescent light for 6 days. Mortality was assessed on the basis of vital, reproduced aphids. Tests were replicated 2 times.

Data set [5] deals with Cotton Aphid (Aphis gossypii). The data set is described as follows: Activity against cotton aphid, cotton cotyledon dip. The note with it: 120 h, cotyledons dipped, after 5 days. The data set is classed as in vivo. An excerpt:
(§1) The active compounds were formulated in 50:50 acetone:water and 100 ppm Kinetic™ surfactant.
Cotton plants at the cotyledon stage (one plant per pot) were infested by placing a heavily infested leaf from the main colony on top of each cotyledon. The aphids were allowed to transfer to the host plant overnight, and the leaf used to transfer the aphids was removed. The cotyledons were dipped in the test solution and allowed to dry. After 5 days, mortality counts were made.

For data set [6], the system named is Southern Armyworm (Spodoptera eridania), 2nd Instar Larvae. In words: whole plant or invertebrate. Type of data set: in vivo. The note with it: in Phaseolus lunatus, foliar, 120 h, 300 ppm, leaf dipped, at 5 days, read-out: mortality. The protocol:
The active compounds were formulated for testing the activity against insects and arachnids as a 10.000 ppm solution in a mixture of 35% acetone and water, which was diluted with water, if needed.
A Sieva lima bean leaf was dipped in the test solution and allowed to dry. The leaf was then placed in a petri dish containing a filter paper on the bottom and ten 2nd instar caterpillars. At 5 days, observations are made of mortality and reduced feeding.

Data set [7] deals with Silverleaf Whitefly (Bemisia argentifolii). In words: Activity against silverleaf whitefly, cotton cotyledon dip. The conditions noted are these: 72 h, cotyledons dipped, adults, 3 days after treatment. The data set is classed as in vivo. The method, then:
as §1
Selected cotton plants were grown to the cotyledon state (one plant per pot). The cotyledons were dipped into the test solution to provide complete coverage of the foliage and placed in a well-vented area to dry. Each pot with treated seedling was placed in a plastic cup and 10 to 12 whitefly adults (approximately 3-5 day old) were introduced. The insects were collected using an aspirator and an 0.6 cm, non-toxic Tygon™ tubing (R-3603) connected to a barrier pipette tip. The tip, containing the collected insects, was then gently inserted into the soil containing the treated plant, allowing insects to crawl out of the tip to reach the foliage for feeding. The cups were covered with a reusable screened lid (150 micron mesh polyester screen PeCap from Tetko Inc). Test plants were maintained in the holding room at about 25° C. and 20-40% relative humidity for 3 days avoiding direct exposure to the fluorescent light (24 hour photoperiod) to prevent trapping of heat inside the cup. Mortality was assessed 3 days after treatment of the plants.

In data set [8] the test system is Yellowfever Mosquito (Aedes aegyptii). In words: Activity via glass contact. Type of data set: in vivo. An excerpt:
10. Activity Against Argentine Ant (Linepithema humile), Harvester Ant (Pogonomyrmex Californicus), Acrobat Ant (Crematogaster Spp.), Carpenter Ant (Camponotus floridanus), Fire Ant (Solenopsis invicta), House Fly (Musca domestica), Stable Fly (Stomoxys calcitrans), Flesh Fly (Sarcophaga sp.), Yellowfever Mosquito (Aedes aegyptii), House Mosquito (Culex quinquefasciatus), Malaria Mosquito (Anopheles albimanus), German Cockroach (Blattella Germanica), Cat Flea (Ctenocephalides felis), and Brown Dog Tick (Rhipicephalus sanguineus) Via Glass Contact
Glass vials were treated with 0.5 ml of a solution of active ingredient in acetone and allowed to dry. Insects or ticks were placed into each vial together with some food and moisture supply.

In data set [9] the test system is Tobacco Budworm (Heliothis virescens). In words: whole plant or invertebrate. The conditions noted are these: 144 h.
The test system of data set [10] is Diamond Back Moth (Plutella xylostella). The data set is described as follows: Activity against diamond back moth, cabbage leaf disk dip. The data set is classed as in vivo. The conditions noted are these: foliar, 300 ppm, leaf disk dipped, third instar larvae, after 72 h, read-out: mortality. The method, then: The active compounds were formulated in 50:50 acetone:water and 0.1% (vol/vol) Alkamuls EL 620 surfactant. A 6 cm leaf disk of cabbage leaves was dipped in the test solution for 3 seconds and allowed to air dry in a Petri plate lined with moist filter paper. The leaf disk was inoculated with 10 third instar larvae and kept at 25-27° C. and 50-60% humidity for 3 days. Mortality was assessed after 72 h of treatment.

Data set [11] deals with Mediterranean Fruitfly (Ceratitis capitata). In words: Activity against Mediterranean fruitfly, eggs in microtiterplates. Type of data set: in vivo. The note with it: 144 h, eggs sprayed with 5 μl test solution, 6 days. The method, then: 50 to 80 eggs were placed into microtiterplates filled with 0.5% agar-agar and 14% diet in water. […] Mortality was assessed on the basis of the agility of the hatched larvae. Tests were replicated 2 times.

Where [12] appears, read: 10 ppm, water treatment, 4th-instar larvae.

Each structure is given as a SMILES string. Where two headings read alike, the source gives them in different places.

The compound `CCN(CC)S(=O)(=O)NC(=O)c1cccc(C)c1NC(=O)c1cc(Br)nn1-c1ncccc1Cl` had a melting point of 191 °C.

With `Cc1cccc(C(=O)NS(=O)(=O)N(C)C)c1NC(=O)c1cc(C(F)(F)F)nn1-c1ncccc1Cl`, the melting point came out at 183 °C.

In the case of `CCS(C)=NC(=O)c1cc(C#N)cc(C)c1NC(=O)c1cc(C(F)(F)F)nn1-c1ncccc1Cl` (stereo not shown), the melting point amounted to 65 °C.

Take `CCN(CC)S(=O)(=O)NC(=O)c1cc(Cl)cc(C)c1NC(=O)c1cc(C(F)(F)F)nn1-c1ncccc1Cl` [I.1-37]: the mortality at 10 ppm in data set [1] was over 70%.

As to `Cc1cc(Cl)cc(C(=O)N=S(C(C)C)C(C)C)c1NC(=O)c1cc(C(F)(F)F)nn1-c1ncccc1Cl` [I.3-1], the mortality entry in data set [2] is “over 75%”.

Turning to `Cc1cc(Cl)cc(C(=O)N=S(C)C)c1NC(=O)c1cc(Br)nn1-c1ncccc1Cl` [I.3-4], the mortality at 2500 ppm in [3], in data set [4] and in [9] was over 75% each time. Further, the mortality at 300 ppm was over 50% in [5], over 75% in [6] and over 90% in data set [7]. Also, the mortality at 10 ppm in [8] and in data set [1] (setting [12]) was over 70% in each case.

Consider `Cc1cccc(C(=O)N=S(C)C)c1NC(=O)c1cc(Br)nn1-c1ncccc1Cl` [I.3-7], for which the mortality at 2500 ppm in data set [3], in data set [4] and in data set [9] was over 75% throughout. For the same compound, the mortality at 300 ppm in data set [5] was over 50%; in data set [6] it was over 75%; in data set [10] it was over 75%. The mortality at 10 ppm in data set [1] (setting [12]) is over 70%.

For the compound `CCS(C)=NC(=O)c1cc(I)cc(C)c1NC(=O)c1cc(C(F)(F)F)nn1-c1ncccc1Cl` (stereo not shown) [I.3-30], the mortality at 2500 ppm in data set [3], in data set [11], in [4] and in [9] was over 75% each time. The mortality at 300 ppm in [5] was over 50%; in data set [6], over 75%; in data set [7], over 90%; in data set [10], over 75%.
